Laboratory results published in patent US8912227B1, “Bicyclic pyrrole derivatives useful as agonists of GPR120” (Janssen Pharmaceutica NV, priority 2014, dated 2014).

Legend:
[1] = target: T1, Human GPR120 short form (Homo sapiens, UniProt Q5NUL3); assay: Human GPR120 calcium flux assay, Procedure Calcium B; format: cell-based; settings: HEK-293 cells expressing human GPR120 short form, 4200 cells/well, FLIPR
T1 construct: expressed in transfected cells
T1 sequence (Q5NUL3 1-361): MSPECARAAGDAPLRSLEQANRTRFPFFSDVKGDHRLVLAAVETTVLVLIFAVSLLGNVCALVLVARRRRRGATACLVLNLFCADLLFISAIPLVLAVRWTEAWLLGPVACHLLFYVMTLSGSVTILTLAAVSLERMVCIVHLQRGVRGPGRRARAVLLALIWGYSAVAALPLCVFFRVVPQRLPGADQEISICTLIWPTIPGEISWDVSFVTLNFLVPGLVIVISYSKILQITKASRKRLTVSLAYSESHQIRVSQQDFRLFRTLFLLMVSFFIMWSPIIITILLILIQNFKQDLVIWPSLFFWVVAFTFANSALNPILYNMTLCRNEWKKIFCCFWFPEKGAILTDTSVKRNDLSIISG
From the text: (§1) This in vitro assay serves to assess test compound agonist activity against the short splice variant (SVS with Accession number NM_001195755.1 confirmed by sequencing data) of the GPR120 receptor. The Human Short splice variant #2 (NM_001195755.1) is missing an in-frame coding exon compared to variant 1 (the Human Long splice variant NM_181745.3), resulting in a shorter isoform (GPR120-S) lacking a 16 aa protein segment compared to isoform GPR120-L. The assay platform utilizes HEK-293 cells stably transfected to express the Human GPR120 short form. These cells are first loaded with the Ca^+2 sensitive dye, Fluo-4 NW. Upon stimulation, intracellular released Ca^+2 can bind to the dye and alter its fluorescence intensity. This increase in fluorescence signal, and thus the flux in intracellular [Ca^2+], is detected and quantitated by fluorescence imaging using a FLIPR reader. The effect of the agonist is measured as a function of concentration and used to calculate an EC50 based upon a response curve.
In this procedure 4200 cells/well were employed.
(§2) A Human GPR120 clone (Genbank accession number NM_001195755.1) was placed into the pcDNA3.1 mammalian expression vector carrying the neomycin resistance gene. A stable mammalian cell was generated by placing the above clone into a HEK293 background. Clonal cells responding to long chain fatty acids had expression levels of GPR120 confirmed by RT-qPCR. Human HEK-GPR120 cells were cultured in Dulbecco's Modified Eagle's Medium (DMEM)/F12 medium supplemented with 10% fetal bovine serum (FBS), 1% L-Glutamine and 1% penicillin/streptomycin and 0.5 mg/ml G-418. Cells were split 2 times a week to keep the cells in the log-phase growth.
(§3) In preparation for the assay, HEK cells stably transfected with Human GPR120 (2.5K cells per well in 25 uL growth medium) were seeded into 384-well plates and then incubated overnight (37° C., 5% CO2). The next day, the media was changed to 20 μl assay buffer and the cell starved for 1 h at 37° C. The dye loading solution (2× dye) was prepared using 10 ml assay buffer, 100 μl of 250 mM probenecid, 1 bottle of Component A, and 20 μl of dye in DMSO. Twenty μl of the 2× dye loading buffer was then added to each well. The plates were incubated at 37° C. for 30 min, then at room temperature for an additional 15 minutes, before performing the assay on FLIPR.
(§4) Test compounds were prepared in assay buffer (2 μl of test compound+198 μl assay buffer, final DMSO in assay plate is 0.2%) at the desired concentration, more particularly at 100 μM, 50 μM, 25 μM, 12.5 μM, 6.25 μM, 3.125 μM, 1.562 μM, 0.781 μM, 0.391 μM, 0.195 μM, 0.098 μM, 0.049 μM, 0.024 μM and 0.012 μM.
(§5) The assay was performed on a FLIPR plate reader using the following parameters. Baseline was read for 10 seconds at 1 sec intervals. The program was set to transfer 10 μL of ligand from compound plate to cell plate after baseline reading. Aspiration was executed at: 10 μl/sec speed, 4.6 μl height; Dispensing was executed at: 30 μl/sec speed, 45 μl height. After compound addition, each well was read for 300 sec, with measurements collected at 1 sec intervals.
(§6) The kinetic data from the FLIPR was based upon a 5 minute window for data collection. The fluorescence of each sample well was used for individual calculations of a normalized RFU value, which was defined as maximum response minus the minimum response. The normalized fluorescence reading (RFU) was calculated as follows: RFU=Fmax−Fmin
(§7) The data were fitted to a sigmoidal dose-response curve with a variable Hill slope (<2) using nonlinear regression with GraphPad Prism 5.0 to calculate the EC50 values. The Fitting Equation was: Y=Bottom+(Top−Bottom)/(1+10^((LogEC50−X)*HillSlope)), where X is the log of the concentration and Y is the response.

[2] = target: T1, Human GPR120 short form; assay: Human GPR120 calcium flux assay, Procedure Calcium A; format: cell-based; settings: HEK-293 cells expressing human GPR120 short form, 2500 cells/well, FLIPR
From the text: as §1
In this procedure 2500 cells/well were employed.
as §2, §3, §4, §5, §6, §7

| SMILES | EC50 [1] | EC50 [2] |
| --- | --- | --- |
| CCc1ccc(-n2ccc(C(F)(F)F)c2COc2ccc(CCCO)c(C)c2C)cc1 [Compound 40, 3-(4-[[1-(4-ethylphenyl)-3-(trifluoromethyl)-1H-pyrrol-2-yl]methoxy]-2,3-dimethylphenyl)propan-1-ol] | 896 nM | 1920 nM |
| O=C(O)CCc1cc(F)c(OCc2c(C(F)(F)C(F)(F)F)ccn2-c2ccc(Cl)cc2)c(F)c1 [Compound 63, 3-(4-((1-(4-chlorophenyl)-3-(perfluoroethyl)-1H-pyrrol-2-yl)methoxy)-3,5-difluorophenyl)propanoic acid] | 1150 nM | – |
| O=C(O)CCc1ccc(OCc2c(C(F)(F)F)ccn2-c2cccc(F)c2)cc1Cl [Compound 79, 3-(2-Chloro-4-{[1-(3-fluorophenyl)-3-(trifluoromethyl)-1H-pyrrol-2-yl]methoxy}phenyl)propanoic acid] | 998 nM | – |
| Cc1c(CCC(=O)O)ccc(OCc2c(Br)ccn2-c2ccc(Cl)cc2)c1C [Compound 14, 3-(4-{[3-Bromo-1-(4-chlorophenyl)-1H-pyrrol-2-yl]methoxy}-2,3-dimethylphenyl)propanoic acid] | 1400 nM | 2890 nM |
| Cc1c(CCC(=O)O)ccc(OCc2c(C#N)ccn2-c2ccc(Cl)cc2)c1C [Compound 12, 3-(4-{[1-(4-Chlorophenyl)-3-cyano-1H-pyrrol-2-yl]methoxy}-2,3-dimethylphenyl)propanoic acid] | 1140 nM | 4260 nM |
| COc1ccc(-n2ccc(C(F)(F)F)c2COc2c(F)cc(CCCO)cc2F)cn1 [Compound 52, 3-(3,5-difluoro-4-[[1-(6-methoxypyridin-3-yl)-3-(trifluoromethyl)-1H-pyrrol-2-yl]methoxy]phenyl)propan-1-ol] | 71 nM | 285 nM |
| CCc1ccc(-n2ccc(C(F)(F)F)c2COc2ccc(CCCO)c(F)c2F)cc1 [Compound 41, 3-(4-[[1-(4-ethylphenyl)-3-(trifluoromethyl)-1H-pyrrol-2-yl]methoxy]-2,3-difluorophenyl)propan-1-ol] | 247 nM | 1260 nM |
| COc1ccc(-n2ccc(C(F)(F)F)c2COc2ccc(CCCO)c(F)c2F)cn1 [Compound 50, 3-(2,3-difluoro-4-[[1-(6-methoxypyridin-3-yl)-3-(trifluoromethyl)-1H-pyrrol-2-yl]methoxy]phenyl)propan-1-ol] | 58 nM | 395 nM |
| Cc1c(CCCO)ccc(OCc2c(Br)ccn2-c2ccc(Cl)cc2)c1C [Compound 13, 3-(4-{[3-Bromo-1-(4-chlorophenyl)-1H-pyrrol-2-yl]methoxy}-2,3-dimethylphenyl)propan-1-ol] | 899 nM | 1560 nM |
| CCc1ccc(-n2ccc(C(F)(F)F)c2COc2c(F)cc(CCC(=O)O)cc2F)cn1 [Compound 56, 3-(4-[[1-(6-ethylpyridin-3-yl)-3-(trifluoromethyl)-1H-pyrrol-2-yl]methoxy]-3,5-difluorophenyl)propanoic acid] | 877 nM | 1410 nM |
| O=C(O)CCc1ccc(OCc2c(C(F)(F)F)ccn2-c2ccc(Br)cc2)c(F)c1F [Compound 20, 3-(4-{[1-(4-Bromophenyl)-3-(trifluoromethyl)-1H-pyrrol-2-yl]methoxy}-2,3-difluorophenyl)propanoic acid] | 289 nM | 1270 nM |
| Cc1ccc(-n2ccc(C(F)(F)F)c2COc2ccc(CCCO)c(C)c2C)cc1 [Compound 45, 3-(2,3-dimethyl-4-[[1-(4-methylphenyl)-3-(trifluoromethyl)-1H-pyrrol-2-yl]methoxy]phenyl)propan-1-ol] | 512 nM | 1440 nM |
| Cc1c(CCCO)ccc(OCc2c(C(F)(F)F)ccn2-c2ccc(Br)cc2)c1C [Compound 18, 3-(4-{[1-(4-Bromophenyl)-3-(trifluoromethyl)-1H-pyrrol-2-yl]methoxy}-2,3-dimethylphenyl)propan-1-ol] | 611 nM | 1300 nM |
| O=C(O)CCc1ccc(OCc2cccn2-c2ccc(Cl)cc2)c(F)c1F [Compound 4, 3-(4-{[1-(4-Chlorophenyl)-1H-pyrrol-2-yl]methoxy}-2,3-difluorophenyl)propanoic acid] | – | > 20000 nM |
| CCc1ccc(-n2cccc2COc2ccc(CCC(=O)O)c(C)c2C)cc1 [Compound 2, 3-(4-{[1-(4-Ethylphenyl)-1H-pyrrol-2-yl]methoxy}-2,3-dimethylphenyl)propanoic acid] | – | > 20000 nM |

Second part, the molecule after the results:

| EC50 [1] | EC50 [2] | SMILES |
| --- | --- | --- |
| 489 nM | – | Cc1c(CCC(=O)O)ccc(OCc2c(C(F)(F)F)ccn2-c2cccc(F)c2)c1C [Compound 84, 3-(4-{[1-(3-Fluorophenyl)-3-(trifluoromethyl)-1H-pyrrol-2-yl]methoxy}-2,3-dimethylphenyl)propanoic acid] |
| 834 nM | – | O=C(O)CCc1ccc(OCc2c(C(F)(F)F)ccn2-c2ccc(F)cc2)cc1C(F)(F)F [Compound 82, 3-[4-{[1-(4-Fluorophenyl)-3-(trifluoromethyl)-1H-pyrrol-2-yl]methoxy}-2-(trifluoromethyl)phenyl]propanoic acid] |
| 404 nM | – | Cc1cc(CCC(=O)O)ccc1OCc1c(C(F)(F)F)ccn1-c1cccc(F)c1 [Compound 88, 3-(4-{[1-(3-Fluorophenyl)-3-(trifluoromethyl)-1H-pyrrol-2-yl]methoxy}-3-methylphenyl)propanoic acid] |
| 448 nM | – | O=C(O)CCc1cc(F)c(OCc2c(C(F)(F)F)ccn2-c2cccc(F)c2)c(F)c1 [Compound 85, 3-(3,5-Difluoro-4-{[1-(3-fluorophenyl)-3-(trifluoromethyl)-1H-pyrrol-2-yl]methoxy}phenyl)propanoic acid] |
| 675 nM | – | O=C(O)CCc1ccc(OCc2c(C(F)(F)F)ccn2-c2cccc(F)c2)cc1C(F)(F)F [Compound 81, 3-[4-{[1-(3-Fluorophenyl)-3-(trifluoromethyl)-1H-pyrrol-2-yl]methoxy}-2-(trifluoromethyl)phenyl]propanoic acid] |
| 923 nM | – | O=C(O)CCc1ccc(OCc2c(C(F)(F)F)ccn2-c2ccc(F)cc2)cc1Cl [Compound 80, 3-(2-Chloro-4-{[1-(4-fluorophenyl)-3-(trifluoromethyl)-1H-pyrrol-2-yl]methoxy}phenyl)propanoic acid] |
| 134 nM | – | O=C(O)CCc1cc(F)c(OCc2c(C(F)(F)F)ccn2-c2ccc(F)cc2)c(F)c1 [Compound 87, 3-(3,5-Difluoro-4-{[1-(4-fluorophenyl)-3-(trifluoromethyl)-1H-pyrrol-2-yl]methoxy}phenyl)propanoic acid] |
| 346 nM | – | Cc1c(CCC(=O)O)ccc(OCc2c(C(F)(F)F)ccn2-c2ccc(F)cc2)c1C [Compound 83, 3-(4-{[1-(4-Fluorophenyl)-3-(trifluoromethyl)-1H-pyrrol-2-yl]methoxy}-2,3-dimethylphenyl)propanoic acid] |
| 280 nM | – | Cc1cc(CCC(=O)O)ccc1OCc1c(C(F)(F)F)ccn1-c1ccc(F)cc1 [Compound 86, 3-(4-{[1-(4-Fluorophenyl)-3-(trifluoromethyl)-1H-pyrrol-2-yl]methoxy}-3-methylphenyl)propanoic acid] |
